Data: patent publication US20240165244A1 (Prelude Therapeutics Incorporated, priority 2022, published 2024)

Tests used:
SMARCA2 = target: T1, SMARCA2 (Homo sapiens, UniProt P51531); test: SMARCA2 HiBiT degradation assay in HeLa cells; type: cell-based; conditions: 18 hours, highest concentration 10 μM
T1 construct: SMARCA2-HiBiT knock-in Hela monoclonal cell (CS302366); host or cells: HeLa monoclonal cells with heterozygous HiBiT knock-in at the endogenous SMARCA2 locus
In short: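 Degradation was read as Nano-Glo HiBiT lytic luminescence (30-60 min, RT) and fitted to curves. Compounds in 3-fold dilutions up to 10 μM were applied for 18 h at 37 °C. Cells were 2500/well monoclonal HeLa with a heterozygous C-terminal HiBiT tag on SMARCA2.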

SMARCA4 = target: T2, SMARCA4 (Homo sapiens, UniProt P51532); test: SMARCA4 HiBiT degradation assay in HeLa cells; type: cell-based; conditions: 18 hours, highest concentration 10 μM
T2 construct: SMARCA4-HiBiT knock-in Hela monoclonal cell (CS3023226); host or cells: HeLa monoclonal cells with heterozygous HiBiT knock-in at the endogenous SMARCA4 locus
T2 sequence (P51532 whole entry): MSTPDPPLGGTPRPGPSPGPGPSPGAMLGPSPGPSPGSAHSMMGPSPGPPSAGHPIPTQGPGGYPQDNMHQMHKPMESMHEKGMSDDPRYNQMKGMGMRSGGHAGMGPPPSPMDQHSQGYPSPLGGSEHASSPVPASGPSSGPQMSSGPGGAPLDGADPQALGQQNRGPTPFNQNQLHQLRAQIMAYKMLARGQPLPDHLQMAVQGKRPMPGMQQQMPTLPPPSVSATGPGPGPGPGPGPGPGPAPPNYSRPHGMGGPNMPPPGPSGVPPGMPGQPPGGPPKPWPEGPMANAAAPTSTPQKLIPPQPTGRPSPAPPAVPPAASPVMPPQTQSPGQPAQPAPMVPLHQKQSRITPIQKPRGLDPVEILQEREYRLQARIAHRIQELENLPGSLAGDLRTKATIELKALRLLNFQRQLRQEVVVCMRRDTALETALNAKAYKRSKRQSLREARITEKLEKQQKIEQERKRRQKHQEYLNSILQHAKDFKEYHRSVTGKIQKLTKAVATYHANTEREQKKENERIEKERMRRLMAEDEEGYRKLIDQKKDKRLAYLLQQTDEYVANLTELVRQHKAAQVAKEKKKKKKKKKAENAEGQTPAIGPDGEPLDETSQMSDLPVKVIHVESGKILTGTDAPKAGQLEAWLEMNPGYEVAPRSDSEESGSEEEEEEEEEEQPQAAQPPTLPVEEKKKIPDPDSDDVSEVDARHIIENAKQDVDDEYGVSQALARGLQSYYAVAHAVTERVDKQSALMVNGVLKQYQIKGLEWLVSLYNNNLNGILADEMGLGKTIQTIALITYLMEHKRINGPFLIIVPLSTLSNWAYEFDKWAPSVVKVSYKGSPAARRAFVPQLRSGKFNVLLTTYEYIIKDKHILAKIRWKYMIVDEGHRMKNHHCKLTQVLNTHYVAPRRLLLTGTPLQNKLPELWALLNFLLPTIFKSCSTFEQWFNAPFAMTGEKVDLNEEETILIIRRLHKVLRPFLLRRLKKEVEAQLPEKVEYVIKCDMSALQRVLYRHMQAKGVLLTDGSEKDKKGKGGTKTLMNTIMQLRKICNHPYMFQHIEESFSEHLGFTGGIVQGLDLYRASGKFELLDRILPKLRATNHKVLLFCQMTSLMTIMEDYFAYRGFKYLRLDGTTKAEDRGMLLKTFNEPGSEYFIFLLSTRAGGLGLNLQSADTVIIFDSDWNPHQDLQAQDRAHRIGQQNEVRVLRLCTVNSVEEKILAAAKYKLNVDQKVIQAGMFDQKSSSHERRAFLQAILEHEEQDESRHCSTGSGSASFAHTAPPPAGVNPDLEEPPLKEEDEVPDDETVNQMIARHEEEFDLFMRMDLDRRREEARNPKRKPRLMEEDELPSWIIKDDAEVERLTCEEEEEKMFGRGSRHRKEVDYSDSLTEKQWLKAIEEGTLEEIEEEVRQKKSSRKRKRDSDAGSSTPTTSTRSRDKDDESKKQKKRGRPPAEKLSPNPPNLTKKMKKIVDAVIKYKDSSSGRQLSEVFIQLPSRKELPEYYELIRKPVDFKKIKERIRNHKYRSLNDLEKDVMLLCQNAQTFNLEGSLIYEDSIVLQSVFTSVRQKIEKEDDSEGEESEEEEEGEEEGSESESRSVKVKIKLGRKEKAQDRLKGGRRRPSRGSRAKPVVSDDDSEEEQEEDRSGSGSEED
In short: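 HeLa monoclonal cells with HiBiT knocked into SMARCA4 were seeded at 2500 cells/well, dosed with compound and incubated 18 hours at 37° C. HiBiT signal reported remaining SMARCA4 protein, and values came from curve fitting.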

T1 sequence (P51531 whole entry): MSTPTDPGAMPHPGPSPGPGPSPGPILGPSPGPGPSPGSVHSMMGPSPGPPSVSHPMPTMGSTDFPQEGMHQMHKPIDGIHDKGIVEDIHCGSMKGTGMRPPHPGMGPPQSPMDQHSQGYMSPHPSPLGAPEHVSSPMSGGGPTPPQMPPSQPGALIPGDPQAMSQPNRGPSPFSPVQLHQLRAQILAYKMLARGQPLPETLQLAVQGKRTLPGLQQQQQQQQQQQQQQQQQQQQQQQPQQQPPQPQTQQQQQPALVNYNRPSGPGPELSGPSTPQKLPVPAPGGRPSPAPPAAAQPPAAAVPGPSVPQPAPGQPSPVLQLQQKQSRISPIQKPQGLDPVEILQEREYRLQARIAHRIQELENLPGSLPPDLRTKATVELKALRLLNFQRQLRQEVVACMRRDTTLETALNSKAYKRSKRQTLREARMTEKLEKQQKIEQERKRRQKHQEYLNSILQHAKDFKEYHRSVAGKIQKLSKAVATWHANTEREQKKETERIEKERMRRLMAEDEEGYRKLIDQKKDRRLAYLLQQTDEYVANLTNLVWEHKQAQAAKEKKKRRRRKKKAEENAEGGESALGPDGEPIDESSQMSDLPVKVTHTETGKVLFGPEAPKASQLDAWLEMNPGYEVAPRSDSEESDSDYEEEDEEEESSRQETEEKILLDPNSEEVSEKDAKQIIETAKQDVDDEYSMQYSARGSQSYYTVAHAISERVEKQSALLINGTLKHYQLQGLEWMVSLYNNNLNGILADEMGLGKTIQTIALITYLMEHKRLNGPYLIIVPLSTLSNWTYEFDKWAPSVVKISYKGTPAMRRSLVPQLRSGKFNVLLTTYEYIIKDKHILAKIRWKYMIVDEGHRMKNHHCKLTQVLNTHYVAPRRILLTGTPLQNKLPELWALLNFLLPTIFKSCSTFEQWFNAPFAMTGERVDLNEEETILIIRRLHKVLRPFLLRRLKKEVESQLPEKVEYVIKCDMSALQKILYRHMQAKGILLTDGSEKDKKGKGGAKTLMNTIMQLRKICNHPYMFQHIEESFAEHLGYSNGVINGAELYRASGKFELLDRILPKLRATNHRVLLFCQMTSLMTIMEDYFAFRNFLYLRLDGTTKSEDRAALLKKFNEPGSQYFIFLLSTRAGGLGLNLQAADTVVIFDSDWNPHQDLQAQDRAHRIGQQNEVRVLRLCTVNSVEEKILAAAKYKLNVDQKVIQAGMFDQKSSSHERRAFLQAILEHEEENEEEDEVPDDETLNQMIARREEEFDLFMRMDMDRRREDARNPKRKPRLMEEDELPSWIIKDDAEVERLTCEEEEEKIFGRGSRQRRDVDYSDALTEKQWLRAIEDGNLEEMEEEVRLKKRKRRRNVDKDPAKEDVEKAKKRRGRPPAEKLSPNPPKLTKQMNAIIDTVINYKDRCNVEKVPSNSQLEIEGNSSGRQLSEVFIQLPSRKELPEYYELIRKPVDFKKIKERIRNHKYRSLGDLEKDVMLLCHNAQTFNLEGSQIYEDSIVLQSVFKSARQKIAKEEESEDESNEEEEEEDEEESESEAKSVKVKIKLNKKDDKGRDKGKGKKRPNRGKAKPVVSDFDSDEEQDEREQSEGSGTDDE

SMILES | DC50 (SMARCA2) [nM] | Dmax (SMARCA2) [%] | DC50 (SMARCA4) [nM] | Dmax (SMARCA4) [%]
C[C@]12CNc3nnc(-c4cccc(F)c4O)cc3N1C[C@H](Oc1cnc(CN3CCN(c4ccc5c(c4)C(=O)N([C@H]4CCC(=O)NC4=O)C5)CC3)cn1)C2 [Example 79, (S)-3-(6-(4-((5-(((6aS,8R)-2-(3-fluoro-2-hydroxyphenyl)-6a-methyl-5,6,6a,7,8,9-hexahydropyrrolo[1′,2′:4,5]pyrazino[2,3-c]pyridazin-8-yl)oxy)pyrazin-2-yl)methyl)piperazin-1-yl)-1-oxoisoindolin-2-yl)piperidine-2,6-dione] | < 100 | > 75 | < 100 | 50 to 75
COc1cc(CN2CCN(c3ccc4c(c3)C(=O)N(C3CCC(=O)NC3=O)C4)CC2)cnc1O[C@H]1CN2c3cc(-c4cccc(F)c4O)nnc3NC[C@]2(C(F)F)C1 (stereo partly drawn) [Example 53, 3-(6-(4-((6-(((6aS,8R)-6a-(difluoromethyl)-2-(3-fluoro-2-hydroxyphenyl)-5,6,6a,7,8,9-hexahydropyrrolo[1′,2′:4,5]pyrazino[2,3-c]pyridazin-8-yl)oxy)-5-methoxypyridin-3-yl)methyl)piperazin-1-yl)-1-oxoisoindolin-2-yl)piperidine-2,6-dione] | < 100 | > 75 | < 100 | > 75
CC[C@@]12CNc3nnc(-c4cccc(F)c4O)cc3N1C[C@H](Oc1nc(C)c(CN3CCN(c4ccc5c(c4)C(=O)N([C@H]4CCC(=O)NC4=O)C5)CC3)cc1C#N)C2 [Example 59, 5-((4-(2-((S)-2,6-dioxopiperidin-3-yl)-3-oxoisoindolin-5-yl)piperazin-1-yl)methyl)-2-(((6aR,8R)-6a-ethyl-2-(3-fluoro-2-hydroxyphenyl)-5,6,6a,7,8,9-hexahydropyrrolo[1′,2′:4,5]pyrazino[2,3-c]pyridazin-8-yl)oxy)-6-methylnicotinonitrile] | < 100 | > 75 | < 100 | 50 to 75
CCc1cc(CN2CCN(c3ccc4c(c3)C(=O)N([C@H]3CCC(=O)NC3=O)C4)CC2)cnc1O[C@H]1CN2c3cc(-c4cccc(F)c4O)nnc3NC[C@@]2(C(F)F)C1 [Example 44, (S)-3-(6-(4-((6-(((6aR,8R)-6a-(difluoromethyl)-2-(3-fluoro-2-hydroxyphenyl)-5,6,6a,7,8,9-hexahydropyrrolo[1′,2′:4,5]pyrazino[2,3-c]pyridazin-8-yl)oxy)-5-ethylpyridin-3-yl)methyl)piperazin-1-yl)-1-oxoisoindolin-2-yl)piperidine-2,6-dione] | < 100 | > 75 | 100 to 1000 | –
O=C1CCC(N2Cc3ccc(N4CCN(Cc5ccc(O[C@@H]6C[C@@H]7CNc8nnc(-c9cc(F)cc(F)c9O)cc8N7C6)cc5C(F)(F)F)CC4)cc3C2=O)C(=O)N1 (stereo partly drawn) [Example 15, 3-(6-(4-(4-(((6aR,8R)-2-(3,5-difluoro-2-hydroxyphenyl)-5,6,6a,7,8,9-hexahydropyrrolo[1′,2′:4,5]pyrazino[2,3-c]pyridazin-8-yl)oxy)-2-(trifluoromethyl)benzyl)piperazin-1-yl)-1-oxoisoindolin-2-yl)piperidine-2,6-dione] | < 100 | > 75 | > 1000 | 50 to 75
CC[C@@]12CNc3nnc(-c4cccc(F)c4O)cc3N1C[C@H](Oc1ncc(CN3CCC(c4ccc5c(c4)C(=O)N([C@H]4CCC(=O)NC4=O)C5)CC3)c(C)n1)C2 [Example 105, (S)-3-(6-(1-((2-(((6aR,8R)-6a-ethyl-2-(3-fluoro-2-hydroxyphenyl)-5,6,6a, 7,8,9-hexahydropyrrolo[1′,2′:4,5]pyrazino[2,3-c]pyridazin-8-yl)oxy)-4-methylpyrimidin-5-yl)methyl)piperidin-4-yl)-1-oxoisoindolin-2-yl)piperidine-2,6-dione] | < 100 | > 75 | 100 to 1000 | < 50
O=C1CC[C@H](N2Cc3ccc(C4CCN(Cc5ccc(O[C@H]6CN7c8cc(-c9cccc(F)c9O)nnc8NC[C@@]7(C(F)F)C6)nc5)CC4)cc3C2=O)C(=O)N1 [Example 90, (S)-3-(6-(1-((6-(((6aR,8R)-6a-(difluoromethyl)-2-(3-fluoro-2-hydroxyphenyl)-5,6,6a,7,8,9-hexahydropyrrolo[1′,2′:4,5]pyrazino[2,3-c]pyridazin-8-yl)oxy)pyridin-3-yl)methyl)piperidin-4-yl)-1-oxoisoindolin-2-yl)piperidine-2,6-dione] | < 100 | > 75 | > 1000 | < 50
Cc1cc(O[C@@H]2C[C@@H]3CNc4nnc(-c5cc(F)cc(F)c5O)cc4N3C2)ccc1CN1CCN(c2ccc3c(c2)C(=O)N(C2CCC(=O)NC2=O)C3)CC1 (stereo partly drawn) [Example 7, 3-(6-(4-(4-(((6aR,8R)-2-(3,5-difluoro-2-hydroxyphenyl)-5,6,6a,7,8,9-hexahydropyrrolo[1′,2′:4,5]pyrazino[2,3-c]pyridazin-8-yl)oxy)-2-methylbenzyl)piperazin-1-yl)-1-oxoisoindolin-2-yl)piperidine-2,6-dione] | < 100 | > 75 | < 100 | 50 to 75
Cc1cc(O[C@H]2CN3c4cc(-c5cccc(F)c5O)nnc4NC[C@@]3(CF)C2)ncc1CN1CCC(c2ccc3c(c2)C(=O)N([C@H]2CCC(=O)NC2=O)C3)CC1 [Example 93, (S)-3-(6-(1-((6-(((6aR,8R)-2-(3-fluoro-2-hydroxyphenyl)-6a-(fluoromethyl)-5,6,6a,7,8,9-hexahydropyrrolo [1′,2′:4,5]pyrazino[2,3-c]pyridazin-8-yl)oxy)-4-methylpyridin-3-yl)methyl)piperidin-4-yl)-1-oxoisoindolin-2-yl)piperidine-2,6-dione] | < 100 | > 75 | > 1000 | < 50
Cc1cc(O[C@@H]2C[C@@H]3CNc4nnc(-c5cc(F)cc(F)c5O)cc4N3C2)ncc1CN1CCN(c2ccc3c(c2)C(=O)N([C@H]2CCC(=O)NC2=O)C3)CC1 [Example 28, (S)-3-(6-(4-((6-(((6aR,8R)-2-(3,5-difluoro-2-hydroxyphenyl)-5,6,6a,7,8,9-hexahydropyrrolo[1′,2′:4,5]pyrazino[2,3-c]pyridazin-8-yl)oxy)-4-methylpyridin-3-yl)methyl)piperazin-1-yl)-1-oxoisoindolin-2-yl)piperidine-2,6-dione] | < 100 | > 75 | < 100 | 50 to 75
COc1cc(O[C@@H]2C[C@@H]3CNc4nnc(-c5cc(F)cc(F)c5O)cc4N3C2)ccc1CN1CCN(c2ccc3c(c2)C(=O)N(C2CCC(=O)NC2=O)C3)CC1 (stereo partly drawn) [Example 12, 3-(6-(4-(4-(((6aR,8R)-2-(3,5-difluoro-2-hydroxyphenyl)-5,6,6a,7,8,9-hexahydropyrrolo[1′,2′:4,5]pyrazino[2,3-c]pyridazin-8-yl)oxy)-2-methoxybenzyl)piperazin-1-yl)-1-oxoisoindolin-2-yl)piperidine-2,6-dione] | < 100 | > 75 | < 100 | > 75
CC[C@]12CNc3nnc(-c4cccc(F)c4O)cc3N1C[C@H](Oc1cnc(CN3CCN(c4ccc5c(c4)CN([C@H]4CCC(=O)NC4=O)C5=O)CC3)c(C)c1)C2 [Example 74, (S)-3-(5-(4-((5-(((6aS,8R)-6a-ethyl-2-(3-fluoro-2-hydroxyphenyl)-5,6,6a,7,8,9-hexahydropyrrolo[1′,2′:4,5]pyrazino[2,3-c]pyridazin-8-yl)oxy)-3-methylpyridin-2-yl)methyl)piperazin-1-yl)-1-oxoisoindolin-2-yl)piperidine-2,6-dione] | < 100 | > 75 | < 100 | > 75
CC(C)c1cc(O[C@@H]2C[C@@H]3CNc4nnc(-c5cc(F)cc(F)c5O)cc4N3C2)ccc1CN1CCN(c2ccc3c(c2)C(=O)N(C2CCC(=O)NC2=O)C3)CC1 (stereo partly drawn) [Example 16, 3-(6-(4-(4-(((6aR,8R)-2-(3,5-difluoro-2-hydroxyphenyl)-5,6,6a,7,8,9-hexahydropyrrolo[1′,2′:4,5]pyrazino[2,3-c]pyridazin-8-yl)oxy)-2-isopropylbenzyl)piperazin-1-yl)-1-oxoisoindolin-2-yl)piperidine-2,6-dione] | < 100 | 50 to 75 | < 100 | 50 to 75
O=C1CC[C@H](N2Cc3ccc(N4CCN(Cc5ccc(O[C@H]6CN7c8cc(-c9cccc(F)c9O)nnc8NC[C@@]7(C(F)F)C6)nc5)CC4)cc3C2=O)C(=O)N1 [Example 43, (S)-3-(6-(4-((6-(((6aR,8R)-6a-(difluoromethyl)-2-(3-fluoro-2-hydroxyphenyl)-5,6,6a,7,8,9-hexahydropyrrolo[1′,2′:4,5]pyrazino[2,3-c]pyridazin-8-yl)oxy)pyridin-3-yl)methyl)piperazin-1-yl)-1-oxoisoindolin-2-yl)piperidine-2,6-dione] | < 100 | > 75 | > 1000 | < 50
Cc1nc(CN2CCN(c3ccc4c(c3)C(=O)N([C@H]3CCC(=O)NC3=O)C4)CC2)cnc1O[C@H]1CN2c3cc(-c4cccc(F)c4O)nnc3NC[C@]2(CF)C1 [Example 66, (S)-3-(6-(4-((5-(((6aS,8R)-2-(3-fluoro-2-hydroxyphenyl)-6a-(fluoromethyl)-5,6,6a,7,8,9-hexahydropyrrolo[1′,2′:4,5]pyrazino[2,3-c]pyridazin-8-yl)oxy)-6-methylpyrazin-2-yl)methyl)piperazin-1-yl)-1-oxoisoindolin-2-yl)piperidine-2,6-dione] | < 100 | > 75 | < 100 | 50 to 75
